Experimental data from PubChem BioAssay AID256 (DTP/NCI, 2004).
Values joined by “and” are separate entries in the source; they are usually repeats but may differ in a detail not shown here. Identical values can stand only once. Toxic doses and inconclusive results are not listed.

Test system: CD2F1 mice, L1210 leukemia ip, survival T/C
Assay: NCI In Vivo Anticancer Drug Screen. Data for tumor model L1210 Leukemia (intraperitoneal) in CD2F1 (CDF1) mice
Settings: higher = longer survival
Outline: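 Vehicle-treated tumor-bearing mice served as controls (C) for compound-treated mice (T). Reported figure is T divided by C.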

[1] = endpoint: mean survival time, dose: 100.0 mg/kg/injection, schedule: Q04DX003 (ip), vehicle: saline with Tween-80
[2] = endpoint: mean survival time, dose: 200.0 mg/kg/injection, schedule: Q04DX003 (ip), vehicle: saline with Tween-80
[3] = endpoint: mean survival time, dose: 400.0 mg/kg/injection, schedule: Q04DX003 (ip), vehicle: saline with Tween-80
[4] = endpoint: mean survival time, dose: 25.0 mg/kg/injection, schedule: Q01DX009 (ip), vehicle: saline
[5] = endpoint: mean survival time, dose: 50.0 mg/kg/injection, schedule: Q01DX009 (ip), vehicle: saline
[6] = endpoint: mean survival time, dose: 100.0 mg/kg/injection, schedule: Q04DX003 (ip), vehicle: saline
[7] = endpoint: mean survival time, dose: 12.5 mg/kg/injection, schedule: Q01DX005 (ip), vehicle: water
[8] = endpoint: mean survival time, dose: 25.0 mg/kg/injection, schedule: Q01DX005 (ip), vehicle: water
[9] = endpoint: mean survival time, dose: 50.0 mg/kg/injection, schedule: Q01DX005 (ip), vehicle: water
[10] = endpoint: mean survival time, dose: 100.0 mg/kg/injection, schedule: Q01DX005 (ip), vehicle: water
[11] = endpoint: mean survival time, dose: 200.0 mg/kg/injection, schedule: Q01DX005 (ip), vehicle: water
[12] = endpoint: mean survival time, dose: 75.0 mg/kg/injection, schedule: Q01DX001 (ip), vehicle: saline
[13] = endpoint: mean survival time, dose: 200.0 mg/kg/injection, schedule: Q04DX003 (ip), vehicle: saline

O=C(Cc1ccccc1)c1ccc(O)cc1
T/C [1]: 100 % of control | T/C [2]: 103 % of control | T/C [3]: 111 % of control

COC(=O)C1(F)C(=O)NC(=O)NC1OC (configuration not stated)
T/C (endpoint: median survival time, dose: 50.0 mg/kg/injection, schedule: Q01DX005 (ip), vehicle: Klucel (hydroxypropylcellulose) (HPC)): 124 % of control | T/C (endpoint: median survival time, dose: 50.0 mg/kg/injection, schedule: Q01DX005 (ip), vehicle: saline with Tween-80): 124 % of control | T/C (endpoint: median survival time, dose: 50.0 mg/kg/injection, schedule: Q01DX009 (ip), vehicle: Klucel (hydroxypropylcellulose) (HPC)): 121 % of control | T/C (endpoint: median survival time, dose: 72.0 mg/kg/injection, schedule: Q01DX009 (ip), vehicle: Klucel (hydroxypropylcellulose) (HPC)): 153 % of control | T/C (endpoint: median survival time, dose: 100.0 mg/kg/injection, schedule: Q01DX005 (ip), vehicle: saline with Tween-80): 156 % of control | T/C (endpoint: median survival time, dose: 100.0 mg/kg/injection, schedule: Q01DX009 (ip), vehicle: Klucel (hydroxypropylcellulose) (HPC)): 158 % of control and 176 % of control | T/C (endpoint: median survival time, dose: 120.0 mg/kg/injection, schedule: Q01DX009 (ip), vehicle: Klucel (hydroxypropylcellulose) (HPC)): 172 % of control | T/C (endpoint: median survival time, dose: 200.0 mg/kg/injection, schedule: Q01DX005 (ip), vehicle: Klucel (hydroxypropylcellulose) (HPC)): 183 % of control | T/C (endpoint: median survival time, dose: 200.0 mg/kg/injection, schedule: Q01DX005 (ip), vehicle: saline with Tween-80): 178 % of control | T/C (endpoint: median survival time, dose: 200.0 mg/kg/injection, schedule: Q01DX009 (ip), vehicle: Klucel (hydroxypropylcellulose) (HPC)): 159 % of control and 197 % of control and 238 % of control | T/C (endpoint: median survival time, dose: 400.0 mg/kg/injection, schedule: Q01DX005 (ip), vehicle: Klucel (hydroxypropylcellulose) (HPC)): 185 % of control | T/C (endpoint: median survival time, dose: 400.0 mg/kg/injection, schedule: Q01DX005 (ip), vehicle: saline with Tween-80): 112 % of control | T/C (endpoint: median survival time, dose: 800.0 mg/kg/injection, schedule: Q01DX005 (ip), vehicle: Klucel (hydroxypropylcellulose) (HPC)): 104 % of control | T/C (endpoint: median survival time, dose: 800.0 mg/kg/injection, schedule: Q01DX005 (ip), vehicle: saline with Tween-80): 109 % of control | T/C (endpoint: median survival time, dose: 800.0 mg/kg/injection, schedule: Q01DX009 (ip), vehicle: Klucel (hydroxypropylcellulose) (HPC)): 108 % of control

CC(C)=CCCC(C)CCN(C)C (configuration not stated)
T/C [4]: 94 % of control | T/C [5]: 94 % of control | T/C (endpoint: mean survival time, dose: 100.0 mg/kg/injection, schedule: Q01DX009 (ip), vehicle: saline): 93 % of control | T/C [6]: 93 % of control

CCCCSC#N
T/C (endpoint: mean survival time, dose: 7.5 mg/kg/injection, schedule: Q01DX009 (ip), vehicle: saline with Tween-80): 95 % of control | T/C (endpoint: mean survival time, dose: 15.0 mg/kg/injection, schedule: Q01DX009 (ip), vehicle: saline with Tween-80): 100 % of control | T/C (endpoint: mean survival time, dose: 30.0 mg/kg/injection, schedule: Q01DX009 (ip), vehicle: saline with Tween-80): 91 % of control

CSc1nc(NN)n2nccc2n1
T/C (endpoint: median survival time, dose: 50.0 mg/kg/injection, schedule: Q01DX005 (ip), vehicle: saline): 104 % of control | T/C (endpoint: median survival time, dose: 100.0 mg/kg/injection, schedule: Q01DX005 (ip), vehicle: saline): 103 % of control

O=C(CSC1=NCCN1)c1ccccc1
T/C (endpoint: mean survival time, dose: 12.5 mg/kg/injection, schedule: Q01DX009 (ip), vehicle: saline): 101 % of control | T/C [4]: 101 % of control | T/C [5]: 102 % of control

COC1OC(CO)C(OC)C(OC)C1NC(C)=O (configuration not stated)
T/C (endpoint: mean survival time, dose: 100.0 mg/kg/injection, schedule: Q01DX001 (ip), vehicle: saline + alcohol): 101 % of control | T/C (endpoint: mean survival time, dose: 200.0 mg/kg/injection, schedule: Q01DX001 (ip), vehicle: saline + alcohol): 103 % of control | T/C (endpoint: mean survival time, dose: 400.0 mg/kg/injection, schedule: Q01DX001 (ip), vehicle: saline + alcohol): 97 % of control

NP(=O)(OCCCOCc1ccccc1)N(CCCl)CCCl (configuration not stated)
T/C [7]: 95 % of control | T/C [8]: 94 % of control | T/C [9]: 100 % of control | T/C [10]: 100 % of control | T/C [11]: 101 % of control

Fc1ccc2c(c1)CC(CBr)O2 (configuration not stated)
T/C (endpoint: mean survival time, dose: 100.0 mg/kg/injection, schedule: Q01DX009 (ip), vehicle: saline with Tween-80): 100 % of control | T/C (endpoint: mean survival time, dose: 200.0 mg/kg/injection, schedule: Q01DX009 (ip), vehicle: saline with Tween-80): 105 % of control | T/C (endpoint: mean survival time, dose: 400.0 mg/kg/injection, schedule: Q01DX009 (ip), vehicle: saline with Tween-80): 96 % of control

COc1ccc2c(c1O)CNCC2c1ccc(O)c(C)c1 (configuration not stated)
T/C [12]: 98 % of control

Cn1cnc([N+](=O)[O-])c1Sc1cn(C2CC(O)C(CO)O2)c(=O)[nH]c1=O (configuration not stated)
T/C [7]: 102 % of control | T/C [8]: 102 % of control | T/C [9]: 104 % of control | T/C [10]: 98 % of control | T/C [11]: 106 % of control

Cc1ccc(S(=O)(=O)OCC2OC3(COS(=O)(=O)c4ccc(C)cc4)OC(C)(C)OC3C2O)cc1 (configuration not stated)
T/C [1]: 93 % of control | T/C [2]: 101 % of control

COc1ccc(NS(=O)(=O)c2ccc(NC(C)=O)cc2)cc1
T/C (endpoint: mean survival time, dose: 100.0 mg/kg/injection, schedule: Q01DX001 (ip), vehicle: Klucel (hydroxypropylcellulose) (HPC)): 104 % of control | T/C (endpoint: mean survival time, dose: 100.0 mg/kg/injection, schedule: Q01DX009 (ip), vehicle: Klucel (hydroxypropylcellulose) (HPC)): 97 % of control | T/C (endpoint: mean survival time, dose: 200.0 mg/kg/injection, schedule: Q01DX001 (ip), vehicle: Klucel (hydroxypropylcellulose) (HPC)): 96 % of control | T/C (endpoint: mean survival time, dose: 200.0 mg/kg/injection, schedule: Q01DX009 (ip), vehicle: Klucel (hydroxypropylcellulose) (HPC)): 105 % of control | T/C (endpoint: mean survival time, dose: 400.0 mg/kg/injection, schedule: Q01DX001 (ip), vehicle: Klucel (hydroxypropylcellulose) (HPC)): 98 % of control | T/C (endpoint: mean survival time, dose: 400.0 mg/kg/injection, schedule: Q01DX009 (ip), vehicle: Klucel (hydroxypropylcellulose) (HPC)): 96 % of control

CCCC(=O)NC1=C(Cl)C(=O)c2ccccc2C1=O
T/C (endpoint: mean survival time, dose: 5.0 mg/kg/injection, schedule: Q01DX001 (ip), vehicle: saline): 88 % of control | T/C (endpoint: mean survival time, dose: 10.0 mg/kg/injection, schedule: Q01DX001 (ip), vehicle: saline): 103 % of control | T/C (endpoint: mean survival time, dose: 20.0 mg/kg/injection, schedule: Q01DX001 (ip), vehicle: saline): 95 % of control

Nc1ccc2c(c1)[nH]c1ccccc12
T/C [1]: 93 % of control | T/C [2]: 101 % of control

N#CC1(C#N)OC(C#N)(C#N)C2C1C=CC1C2C1(C#N)C#N (configuration not stated)
T/C (endpoint: mean survival time, dose: 6.25 mg/kg/injection, schedule: Q01DX001 (ip), vehicle: saline with Tween-80): 108 % of control | T/C (endpoint: mean survival time, dose: 12.5 mg/kg/injection, schedule: Q01DX001 (ip), vehicle: saline with Tween-80): 97 % of control | T/C (endpoint: mean survival time, dose: 25.0 mg/kg/injection, schedule: Q01DX001 (ip), vehicle: saline with Tween-80): 97 % of control

CCOC(=O)C(Cc1ccccc1Cl)(Cc1ccccc1Cl)c1ccccc1
T/C [1]: 93 % of control | T/C [2]: 98 % of control | T/C [3]: 90 % of control

[Br][Sn]([Br])([c]1cccc2ccccc12)[c]1cccc2ccccc12
T/C [1]: 105 % of control | T/C [2]: 109 % of control | T/C [3]: 97 % of control

CN(C)C(C)(C)P(=O)(O)O
T/C [6]: 98 % of control | T/C [13]: 96 % of control | T/C (endpoint: mean survival time, dose: 400.0 mg/kg/injection, schedule: Q04DX003 (ip), vehicle: saline): 96 % of control

CC(=O)OCC1OC(OC(C)=O)C([NH-])C(OC(C)=O)C1OC(C)=O.CC(=O)OCC1OC(OC(C)=O)C([NH-])C(OC(C)=O)C1OC(C)=O.[Cl][Pt+2][Cl] (configuration not stated)
T/C (endpoint: mean survival time, dose: 12.5 mg/kg/injection, schedule: Q04DX003 (ip), vehicle: saline): 98 % of control | T/C (endpoint: mean survival time, dose: 25.0 mg/kg/injection, schedule: Q04DX003 (ip), vehicle: saline): 93 % of control | T/C (endpoint: mean survival time, dose: 50.0 mg/kg/injection, schedule: Q04DX003 (ip), vehicle: saline): 95 % of control | T/C [6]: 90 % of control | T/C [13]: 95 % of control

N/N=C1\CC2C3CC4(OCCO4)C4C3CC2C14 (configuration not stated)
T/C [12]: 102 % of control | T/C (endpoint: mean survival time, dose: 150.0 mg/kg/injection, schedule: Q01DX001 (ip), vehicle: saline): 103 % of control

CCCCC1CCC(NC(=O)Nc2ccccc2)CC1 (configuration not stated)
T/C [1]: 113 % of control | T/C [2]: 109 % of control | T/C [3]: 105 % of control

c1ccc(-c2nc(-c3ccccc3)n3nc4c(c3c2-c2ccccc2)CCCCCC4)cc1
T/C (endpoint: mean survival time, dose: 100.0 mg/kg/injection, schedule: Q01DX001 (ip), vehicle: saline): 112 % of control | T/C (endpoint: mean survival time, dose: 200.0 mg/kg/injection, schedule: Q01DX001 (ip), vehicle: saline): 108 % of control | T/C (endpoint: mean survival time, dose: 400.0 mg/kg/injection, schedule: Q01DX001 (ip), vehicle: saline): 87 % of control

[NH-]c1ccccc1C(=O)O.[NH-]c1ccccc1C(=O)O.[Ni+2]
T/C [1]: 93 % of control | T/C [2]: 107 % of control
